According to patent EP0801527B1 (priority 1995, dated 1996):
pEC50, pKi: −log10 of the molar value. Read-outs that look alike come from different tables or passages of the source.

What was measured:
[1] = test system: synaptosomes from the striatal area of rat brain; assay: [3H]-Dopamine release from striatal synaptosomes (continuous perfusion); type: cell-based, Sprague-Dawley rats; settings: for Emax: Rattus norvegicus; for pEC50: rat striatal synaptosomes
Protocol: Dopamine release was measured by preparing synaptosomes from the striatal area of rat brain obtained from Sprague-Dawley rats generally according to the procedures set forth by Nagy et al., J. Neurochem., Vol. 43, pp. 1114-1123 (1984). Striata from 4 rats were homogenized in 2 ml of 0.32M sucrose buffered with 5 mM HEPES (pH 7.5), using a glass-Teflon tissue grinder. The homogenate was diluted to 5 ml with additional homogenization solution and centrifuged at 1,000 x g for 10 min. This procedure was repeated on the new pellet and the resulting supernatant was centrifuged at 12,000 x g for 20 min. A 3 layer discontinuous Percoll gradient consisting of 16 percent, 10 percent and 7.5 percent Percoll in HEPES-buffered sucrose was made with the final pellet dispersed in the top layer. After centrifugation at 15,000 x g for 20 min., the synaptosomes were recovered above the 16 percent layer with a Pasteur pipette, diluted with 8 ml of perfusion buffer (128 mM NaCl, 2.4 mM KCl, 3.2 Mm CaCl2, 1.2 mM KH2PO4, 1.2 mM MgSO4, 25 mM HEPES pH 7.4, 10 mM dextrose, 1 mM ascorbate, 0.01 mM pargyline), and centrifuged at 15,000 x g for 20 min. The new pellet was collected and re-suspended in perfusion buffer. The synaptosome suspension was incubated for 10 min. at 37°C. [^3H]-Dopamine (Amersham, 40-60 Ci/mmol) was added to the suspension to give a final concentration of 0.1 uM, and the suspension was incubated for another 5 min. Using this method, 30 to 90 percent of the dopamine was taken up into the synaptosomes, as determined by scintillation counting following filtration through glass fiber filters soaked with 0.5 percent polyethyleneimine. A continuous perfusion system was used to monitor release following exposure to each ligand. Synaptosomes were loaded onto glass fiber filters (Gelman type A/E). Perfusion buffer was dripped onto the filters (0.2-0.3 ml/min.) and pulled through the filters with a peristaltic pump. Synaptosomes were washed with perfusion buffer for a minimum of 20 min. before addition of the ligand. After the addition of 0.2 ml of a solution containing various concentrations of ligand, the perfusate was collected into scintillation vials at 1 min. intervals and the dopamine released was quantified by scintillation counting. Peaks of radioactivity released above background were summed and the average basal release during that time was subtracted from the total.

[2] = molecular target: T1, muscle-like nicotinic receptors (Homo sapiens, UniProt P02708+P07510+Q07001); assay: cell-based; type: cell-based; settings: for Emax: TE671/RD, read-out: Muscle Effect
T1 construct: Intact cells on dishes were used for functional studies; endogenous in cells; host or cells: TE671/RD human embryonal rhabdomyosarcoma cells
T1 sequence (P02708 21-457): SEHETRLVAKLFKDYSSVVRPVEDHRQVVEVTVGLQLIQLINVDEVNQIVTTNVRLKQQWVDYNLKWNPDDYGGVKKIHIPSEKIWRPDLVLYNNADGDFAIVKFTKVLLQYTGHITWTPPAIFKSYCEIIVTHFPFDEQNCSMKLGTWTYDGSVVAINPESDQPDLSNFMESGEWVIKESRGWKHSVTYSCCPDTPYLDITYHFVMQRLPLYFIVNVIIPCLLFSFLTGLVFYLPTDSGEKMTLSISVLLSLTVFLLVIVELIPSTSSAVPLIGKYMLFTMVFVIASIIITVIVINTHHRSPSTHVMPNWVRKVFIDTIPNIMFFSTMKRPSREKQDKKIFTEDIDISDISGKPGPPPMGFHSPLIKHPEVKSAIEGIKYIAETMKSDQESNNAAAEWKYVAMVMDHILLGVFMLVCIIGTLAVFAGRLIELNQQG
T1 sequence (P07510 23-517): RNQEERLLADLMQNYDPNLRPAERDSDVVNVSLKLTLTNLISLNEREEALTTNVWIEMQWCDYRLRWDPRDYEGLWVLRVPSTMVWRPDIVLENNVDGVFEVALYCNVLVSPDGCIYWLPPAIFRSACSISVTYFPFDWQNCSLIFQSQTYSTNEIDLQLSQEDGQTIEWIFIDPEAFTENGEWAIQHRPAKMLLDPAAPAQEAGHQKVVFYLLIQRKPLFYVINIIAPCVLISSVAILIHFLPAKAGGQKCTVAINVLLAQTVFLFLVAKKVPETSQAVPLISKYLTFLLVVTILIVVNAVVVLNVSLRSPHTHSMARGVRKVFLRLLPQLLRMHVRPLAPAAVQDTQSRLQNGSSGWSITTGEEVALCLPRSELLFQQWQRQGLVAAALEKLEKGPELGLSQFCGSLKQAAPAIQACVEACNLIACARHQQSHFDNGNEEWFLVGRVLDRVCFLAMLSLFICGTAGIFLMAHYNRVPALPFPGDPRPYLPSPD
T1 sequence (P11230 24-501, further chain): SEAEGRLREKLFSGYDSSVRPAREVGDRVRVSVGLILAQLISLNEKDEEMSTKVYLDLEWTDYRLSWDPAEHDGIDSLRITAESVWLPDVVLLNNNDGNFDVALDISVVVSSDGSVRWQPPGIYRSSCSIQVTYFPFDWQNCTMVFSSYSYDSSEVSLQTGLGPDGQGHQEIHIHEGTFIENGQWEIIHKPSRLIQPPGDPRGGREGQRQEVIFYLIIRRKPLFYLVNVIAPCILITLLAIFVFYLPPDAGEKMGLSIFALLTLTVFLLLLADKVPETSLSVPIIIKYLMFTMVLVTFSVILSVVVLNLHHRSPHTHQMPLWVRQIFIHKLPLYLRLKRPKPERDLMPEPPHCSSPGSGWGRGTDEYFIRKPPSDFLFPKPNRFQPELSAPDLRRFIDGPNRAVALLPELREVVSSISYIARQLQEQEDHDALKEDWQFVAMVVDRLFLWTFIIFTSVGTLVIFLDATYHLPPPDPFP
T1 sequence (Q07001 22-517): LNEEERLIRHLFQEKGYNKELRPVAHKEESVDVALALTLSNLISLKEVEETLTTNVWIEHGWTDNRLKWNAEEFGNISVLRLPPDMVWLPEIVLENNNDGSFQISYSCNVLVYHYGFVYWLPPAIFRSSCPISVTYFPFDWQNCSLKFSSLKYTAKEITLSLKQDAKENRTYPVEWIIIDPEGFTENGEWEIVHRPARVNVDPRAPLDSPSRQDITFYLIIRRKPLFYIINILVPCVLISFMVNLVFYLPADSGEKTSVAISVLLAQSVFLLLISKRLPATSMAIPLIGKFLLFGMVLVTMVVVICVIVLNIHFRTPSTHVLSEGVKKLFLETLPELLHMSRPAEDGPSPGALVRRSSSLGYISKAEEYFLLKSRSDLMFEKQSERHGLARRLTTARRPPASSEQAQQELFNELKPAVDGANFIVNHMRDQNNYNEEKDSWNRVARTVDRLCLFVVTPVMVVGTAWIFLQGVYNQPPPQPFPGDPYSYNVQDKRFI

[3] = molecular target: T2, ganglionic-type neuronal nicotinic receptors (Rattus norvegicus, UniProt P04757+P12392); assay: cell-based; settings: for Emax: PC-12, read-out: Ganglion Effect
T2 construct: Intact cells on dishes were used for functional studies; endogenous in cells; host or cells: PC12 rat pheochromocytoma cells
T2 sequence (P04757 26-499): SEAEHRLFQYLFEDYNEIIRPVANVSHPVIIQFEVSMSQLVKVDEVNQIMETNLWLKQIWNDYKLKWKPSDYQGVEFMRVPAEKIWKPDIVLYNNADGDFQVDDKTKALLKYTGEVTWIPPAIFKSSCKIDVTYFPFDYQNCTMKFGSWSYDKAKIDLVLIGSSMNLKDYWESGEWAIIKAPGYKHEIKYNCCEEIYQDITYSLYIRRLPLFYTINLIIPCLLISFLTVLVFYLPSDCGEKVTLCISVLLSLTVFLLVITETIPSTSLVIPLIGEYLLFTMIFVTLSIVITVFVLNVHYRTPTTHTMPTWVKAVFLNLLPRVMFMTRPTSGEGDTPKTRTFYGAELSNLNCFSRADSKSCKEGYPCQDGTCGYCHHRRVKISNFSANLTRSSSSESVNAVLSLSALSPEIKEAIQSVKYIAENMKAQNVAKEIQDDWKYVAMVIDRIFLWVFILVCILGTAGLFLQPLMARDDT
T2 sequence (P12392 21-495): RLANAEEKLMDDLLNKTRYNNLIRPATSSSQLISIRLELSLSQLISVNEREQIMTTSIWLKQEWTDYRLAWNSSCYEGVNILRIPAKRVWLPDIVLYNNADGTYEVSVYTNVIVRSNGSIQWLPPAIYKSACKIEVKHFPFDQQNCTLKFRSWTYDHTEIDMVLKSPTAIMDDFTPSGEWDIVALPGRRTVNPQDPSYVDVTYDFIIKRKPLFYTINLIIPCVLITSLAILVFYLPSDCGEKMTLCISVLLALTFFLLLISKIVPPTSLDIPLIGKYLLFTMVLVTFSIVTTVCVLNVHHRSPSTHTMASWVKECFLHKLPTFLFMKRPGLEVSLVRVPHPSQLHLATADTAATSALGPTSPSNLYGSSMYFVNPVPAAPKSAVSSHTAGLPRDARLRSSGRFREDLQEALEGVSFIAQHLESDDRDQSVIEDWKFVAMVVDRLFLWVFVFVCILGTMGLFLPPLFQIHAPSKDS

[4] = molecular target: T3, high affinity CNS nicotinic receptors (Rattus norvegicus, UniProt P09483+P12390); assay: biochemical; type: binding, Rats (Sprague-Dawley)
T3 construct: Brain membrane preparations were obtained from brain tissue of either males or females; from tissue; host or cells: rat (Sprague-Dawley) brain without cerebellum, membrane preparation
T3 sequence (P09483 31-630): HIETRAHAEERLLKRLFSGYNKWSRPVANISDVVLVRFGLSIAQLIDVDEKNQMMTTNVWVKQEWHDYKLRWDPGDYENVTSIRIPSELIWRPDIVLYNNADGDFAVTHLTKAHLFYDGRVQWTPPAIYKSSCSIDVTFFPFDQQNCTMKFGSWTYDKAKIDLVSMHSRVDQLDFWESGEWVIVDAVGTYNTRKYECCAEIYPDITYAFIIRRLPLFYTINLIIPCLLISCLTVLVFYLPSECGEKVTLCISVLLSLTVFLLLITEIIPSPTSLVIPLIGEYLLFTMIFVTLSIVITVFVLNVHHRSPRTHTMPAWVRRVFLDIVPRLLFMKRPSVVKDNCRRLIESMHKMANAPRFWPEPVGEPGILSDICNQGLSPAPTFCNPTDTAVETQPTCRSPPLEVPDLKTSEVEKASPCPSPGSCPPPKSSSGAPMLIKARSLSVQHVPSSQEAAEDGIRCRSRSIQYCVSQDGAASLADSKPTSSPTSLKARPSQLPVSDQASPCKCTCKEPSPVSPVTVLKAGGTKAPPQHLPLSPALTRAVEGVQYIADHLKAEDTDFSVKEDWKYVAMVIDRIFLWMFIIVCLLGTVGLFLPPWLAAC
T3 sequence (P12390 25-500): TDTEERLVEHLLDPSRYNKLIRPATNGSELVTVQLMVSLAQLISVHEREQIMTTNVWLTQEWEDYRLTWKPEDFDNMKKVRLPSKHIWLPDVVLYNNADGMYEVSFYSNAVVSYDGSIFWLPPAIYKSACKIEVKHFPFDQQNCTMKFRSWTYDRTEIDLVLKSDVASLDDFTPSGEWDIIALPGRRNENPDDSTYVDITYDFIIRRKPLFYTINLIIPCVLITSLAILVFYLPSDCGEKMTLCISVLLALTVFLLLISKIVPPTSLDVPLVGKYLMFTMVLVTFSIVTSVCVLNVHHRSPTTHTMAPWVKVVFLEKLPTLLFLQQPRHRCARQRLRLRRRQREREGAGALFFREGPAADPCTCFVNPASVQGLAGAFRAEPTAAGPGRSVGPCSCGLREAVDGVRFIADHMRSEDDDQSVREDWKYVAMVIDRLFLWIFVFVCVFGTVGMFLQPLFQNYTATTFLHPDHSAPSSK

Compound: CNCC/C=C/c1cccnc1 [Sample No. 8, (E)-metanicotine, reference compound]
- Dopamine Release Emax [1]: 80 %nicotine
- Muscle Effect [2]: 15 % nicotine

Compound: NCC/C=C/c1cncnc1 [Sample No. 1, (E)-4-(5-pyrimidinyl)-3-butene-1-amine monofumarate]
- Emax [1]: 113%
- pEC50 [1]: 5.36

Compound: COc1cncc(/C=C/CCN)c1 [Sample No. 3, (E)-4-[3-(5-methoxypyridin)yl] -3-butene-1-amine monofumarate]
- Emax [1]: 95%
- pEC50 [1]: 5.40
- Emax [3]: 0%
- Emax [2]: 0%

Compound: CNCC/C=C/c1ccc(C)nc1 [Sample No. 6, (E)-N-methyl-4-[3-(6-methylpyrindin)yl]-3-butene-1-amine]
- Emax [1]: 60%
- pEC50 [1]: 6.66
- Emax [3]: 4%
- Emax [2]: 2%

Compound: CNCCC#Cc1cccnc1 [Sample No. 4, N-Methyl-4-(3-pyridinyl)-3-butyne-1-amine]
- Emax [1]: 87%
- pEC50 [1]: 5.08
- Ganglion Effect ([3]; pc12 cells): 59 % nicotine
- Muscle Effect ([2]; te671/rd cells): 7 % nicotine
- pKi [4]: 7.24

Compound: CN1CCC[C@H]1c1cccnc1 [Sample No. C-1, (S)-(-)-nicotine, reference compound]
- Emax [1]: 100%
- pEC50 [1]: 6.94

Compound: CNCCCCc1cccnc1 [Sample No. 7, N-methyl-(3-pyridinyl)-butane-1-amine]
- Emax [1]: 72%
- pKi [4]: 6.04

Compound: CNCC/C=C/c1cncnc1 [Sample No. 2, (E)-N-methyl-4-(5-pyrimidinyl)-3-butene-1-amine]
- Emax [1]: 77%
- pEC50 [1]: 5.24
- Emax [3]: 1%
- Emax [2]: 4%

Compound: CNCC/C=C\c1cccnc1 [Sample No. 5, (Z) metanicotine]
- Dopamine Release Emax [1]: 88 %nicotine
